Tests used:
[1] = test system: AMPK; test: Effect of AMPK activation on lipolysis in vivo: serum FA levels after intraperitoneal AICAR; design: species or system mice; details: five hours after injection
Experimental: Fasting serum triglycerides and FAs were analyzed with Infinity Triglyceride reagent (Thermo Trace) and NEFA C kit (Wako), respectively. Serum insulin, were determined using enzyme-linked immunosorbent assay kits (Alpco).
The role of AMPK in lipolysis is controversial, with several reporting AMPK stimulates lipolysis and others showing it inhibits lipolysis, via phosphorylation of HSL at S563 (Daval et al., 2005; Koh et al., 2007; Lage et al., 2008; Yin et al., 2003). To determine the effect of AMPK specifically on desnutrin-mediated Lipolysis, oleate loaded HEK 293 cells, transfected with wild type desnutrin-HA-GFP, mutant S406A-desnutrin-HA-GFP or GFP control, were treated with the cell-permeable AMPK-activator, 5-amino-4-imidazolecarboxamide riboside (AICAR), and lipolysis was determined by measuring glycerol release. […] To test the effect of AMPK on lipolysis in vivo, AICAR was administered intraperitoneally to flox/flox and desnutrin-ASKO mice and then measured serum FA levels. […] Therefore, AMPK phosphorylates desnutrin to increase lipolysis and promote FA oxidation in adipocytes.
FIGS. 3A-N. Desnutrin ablation converts BAT to WAT, and phosphorylation of desnutrin by AMPK increases lipolysis. […] I) FA oxidation, measured by ^14CO2 production from [U^14C] palmitate, from isolated brown adipocytes (left) and white adipocytes (right) from flox/flox and desnutrin-ASKO mice (n=4). […]

[2] = test system: HEK 293 cells transfected with mutant S406A-desnutrin-HA-GFP; test: Glycerol release (lipolysis) from oleate loaded HEK 293 cells transfected with mutant S406A-desnutrin-HA-GFP; assay type: cell-based; details: treated with AICAR vs without
Experimental: (§1) Gonadal fat pads or BAT from overnight fasted mice were cut into 50 mg samples and incubated at 37° C. without shaking in […] of Krebs-Ringer buffer (12 mM HEPES, 121 mM NaCl, 4.9 mM KCl, 1.2 mM MgSO4 and 0.33 mM CaCl2) containing 2% fatty acid free bovine serum albumin (BSA) and 0.1% glucose with or without 10 μM isoproterenol. Fatty acid (FA) and glycerol release were measured in aliquots from incubation buffer using the NEFA C Kit (Wako) and Free Glycerol Reagent (Sigma), respectively. […] Glycerol and fatty acid were determined using the kits described above.
(§2) The role of AMPK in lipolysis is controversial, with several reporting AMPK stimulates lipolysis and others showing it inhibits lipolysis, via phosphorylation of HSL at S563 (Daval et al., 2005; Koh et al., 2007; Lage et al., 2008; Yin et al., 2003). To determine the effect of AMPK specifically on desnutrin-mediated Lipolysis, oleate loaded HEK 293 cells, transfected with wild type desnutrin-HA-GFP, mutant S406A-desnutrin-HA-GFP or GFP control, were treated with the cell-permeable AMPK-activator, 5-amino-4-imidazolecarboxamide riboside (AICAR), and lipolysis was determined by measuring glycerol release. […] To test the effect of AMPK on lipolysis in vivo, AICAR was administered intraperitoneally to flox/flox and desnutrin-ASKO mice and then measured serum FA levels. […]

[3] = test system: HEK 293 cells transfected with wild type desnutrin-HA-GFP; test: Glycerol release (lipolysis) from oleate loaded HEK 293 cells transfected with wild type desnutrin-HA-GFP; assay type: cell-based; details: treated with AICAR vs without
Experimental: as §1, §2

[4] = target: T1, β3 adrenergic receptors (Mus musculus, UniProt P25962); test: Oxygen consumption (VO2) by indirect calorimetry after injection of β3-agonist; assay type: in vivo, mice; details: intraperitoneal injection 1 mg/kg body weight
T1 construct: endogenous in cells; host or cells: living flox/flox and desnutrin-ASKO mice (whole animal)
Experimental: Oxygen consumption (VO2) was measured using the Comprehensive Laboratory Animal Monitoring System (CLAMS; Columbus Instruments). Data were normalized to body weights. Body temperatures were assessed in 25 wk-old male mice using a RET-3 rectal probe for mice (Physitemp). […] was intraperitoneally injected into mice at 1 mg/kg body weight.
Oxygen consumption (VO2) was measured using the Comprehensive Laboratory Animal Monitoring System (CLAMS: Columbus Instruments). Data were normalized to body weights. Body temperatures were assessed using a RET-3 rectal probe for mice (Physitemp).
Since lipolysis and FAs are critical for thermogenesis, it was predicted that the severely blunted lipolysis in desnutrin-ASKO mice, would lead to impaired thermogenesis. Desnutrin-ASKO mice and flox/flox littermates were subjected to cold stress. […] To test this, a β3-agonist, […], was injected into desnutrin-ASKO and flox/flox mice and oxygen consumption was monitored.
FIGS. 2A-G. Decreased lipolysis in desnutrin-ASKO mice results in impaired thermogenesis and energy expenditure. […] F) Oxygen consumption rate (VO2) measured through indirect calorimetry. G) Oxygen consumption rate (VO2) measured through indirect calorimetry after intraperitoneal injection of CL316243. […]

[5] = target: wild type desnutrin-HA-GFP (murine) (UniProt Q8BJ56); test: cell-based or functional assay
Sequence of wild type desnutrin-HA-GFP (murine) (Q8BJ56 whole entry): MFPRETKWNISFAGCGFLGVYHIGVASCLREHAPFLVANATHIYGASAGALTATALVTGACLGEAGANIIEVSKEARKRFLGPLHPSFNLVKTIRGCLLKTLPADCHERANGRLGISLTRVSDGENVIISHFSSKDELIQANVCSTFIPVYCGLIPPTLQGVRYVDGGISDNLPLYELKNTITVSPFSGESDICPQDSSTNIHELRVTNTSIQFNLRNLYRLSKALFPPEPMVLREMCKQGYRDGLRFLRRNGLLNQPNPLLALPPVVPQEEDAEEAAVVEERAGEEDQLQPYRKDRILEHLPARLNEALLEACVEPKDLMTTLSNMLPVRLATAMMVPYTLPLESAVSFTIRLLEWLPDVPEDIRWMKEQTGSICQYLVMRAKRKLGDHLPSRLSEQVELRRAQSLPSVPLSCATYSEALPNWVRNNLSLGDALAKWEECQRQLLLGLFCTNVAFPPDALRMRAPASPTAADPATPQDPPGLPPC

T1 sequence (P25962 whole entry): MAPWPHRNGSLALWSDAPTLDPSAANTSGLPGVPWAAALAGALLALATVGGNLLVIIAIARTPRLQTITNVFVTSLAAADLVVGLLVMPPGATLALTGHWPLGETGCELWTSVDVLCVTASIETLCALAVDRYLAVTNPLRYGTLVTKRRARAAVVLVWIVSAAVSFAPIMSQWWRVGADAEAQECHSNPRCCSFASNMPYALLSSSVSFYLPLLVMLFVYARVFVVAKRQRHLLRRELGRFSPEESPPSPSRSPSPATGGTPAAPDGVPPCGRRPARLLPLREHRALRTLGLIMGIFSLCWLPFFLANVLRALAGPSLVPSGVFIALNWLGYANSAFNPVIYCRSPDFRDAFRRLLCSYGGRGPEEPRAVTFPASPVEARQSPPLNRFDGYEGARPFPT

Compound: NC(=O)c1ncn([C@@H]2O[C@H](CO)[C@@H](O)[C@H]2O)c1N [AICAR, 5-amino-4-imidazolecarboxamide riboside]
- serum FA levels ([1]; desnutrin-ASKO mice): serum FA levels were unchanged
- serum FA levels ([1]; flox/flox mice): increased serum FA levels
- increase in glycerol release [2]: failed to do so
- increase in glycerol release [3]: 1.8 fold

Compound: C[C@H](Cc1ccc2c(c1)OC(C(=O)O)(C(=O)O)O2)NC[C@H](O)c1cccc(Cl)c1 [CL31624]
- oxygen consumption ([4]; desnutrin-ASKO mice): no change in oxygen consumption
- metabolic rate as indicated by oxygen consumption ([4]; flox/flox mice): drastic increase in their metabolic rate

Compound: AMPK of HEK 293 cells, activated by AICAR
- glycerol release from oleate loaded HEK 293 cells treated with AICAR [5]: 1.8 fold
